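96-well plates; 48 h exposure; 5 concentrations. Endpoints by linear interpolation between flanking doses. Not reached: highest tested concentration assigned. GI50 is the concentration that inhibits growth by half.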 Calls of active or inactive are those of the source. Cut-off read from the data, not from the text of the source: active = GI50 up to about 1.1 µM and inactive = higher. Some results are limits rather than exact numbers.

The values that follow come from ChEMBL document CHEMBL1201862, “PubChem BioAssay data set” (2004).

Holding throughout (test): growth of human tumour cells (NCI), 48 h
Experiment [1] relates to 786-0.
Experiment [2] concerns A498.
The subject of experiment [3] is A549.
In experiment [4] the test system is COLO 205.
Experiment [5] concerns DU-145.
Experiment [6] has as its system HOP-92.
Experiment [7] concerns HT-29.
Experiment [8] has as its system Hs-578T.
For experiment [9], the system named is MDA-MB-435.
In experiment [10] the test system is MDA-N.
The subject of experiment [11] is Malme-3M.
Experiment [12] concerns NCI-H522.
Experiment [13] relates to NCI/ADR-RES.
Experiment [14] concerns SF-539.
Experiment [15] relates to SK-MEL-28.
For experiment [16], the system named is SK-MEL-5.
Experiment [17] relates to SK-OV-3.
The subject of experiment [18] is SW-620.
For experiment [19], the system named is TK-10.
Experiment [20] relates to UO-31.

Take `Cc1ccc(/C=C2\CCCC(CN(C)C)C2=O)cc1` (stereo not given): the GI50 was 1.63 µM (inactive) in experiment [1]; 14.3 µM (inactive) in [2]; 15.6 µM (inactive) in [3]; 1.73 µM (inactive) in [4]; 10.2 µM (inactive) in experiment [5]; 1.88 µM (inactive) in [6]. The GI50 is 1.69 µM (inactive) in experiment [7]; 3.21 µM (inactive) in experiment [8]; 1.85 µM (inactive) in experiment [9]; 1.97 µM (inactive) in experiment [10]; 1.91 µM (inactive) in [11]; 0.0951 µM (active) in experiment [12]. In addition, the GI50 in [13] was 3.32 µM (inactive); in experiment [14] it was 2.84 µM (inactive); in [15], 1.95 µM (inactive); in experiment [16], 3.51 µM (inactive); in experiment [17], 13.6 µM (inactive); in experiment [18], 1.53 µM (inactive). For the same compound, the GI50 was 2.77 µM (inactive) in experiment [19] and 1.69 µM (inactive) in experiment [20].
Consider `O=[N+]([O-])c1ccc2[nH]c(=S)[nH]c(=S)c2c1`, for which the GI50 in experiment [1], in [2], in experiment [3], in [4], in [5] and in experiment [6] was > 100 µM (inactive) throughout. In addition, the GI50 in [7], in [8], in [9], in experiment [10], in experiment [11] and in experiment [12] was > 100 µM (inactive) each time. Besides, the GI50 is > 100 µM (inactive) in experiment [13]; > 100 µM (inactive) in [14]; > 100 µM (inactive) in experiment [15]; > 100 µM (inactive) in experiment [16]; > 100 µM (inactive) in experiment [17]; > 10 µM (inactive) in experiment [18]. In addition, the GI50 in experiment [19] and in experiment [20] was > 100 µM (inactive) throughout.
As for `Cn1c(=O)c2c([nH]/c(=N/N=C/c3ccccc3C(=O)O)n2C)n(C)c1=O`, the GI50 in experiment [1], in experiment [2], in experiment [3], in [4], in experiment [5] and in [6] was > 100 µM (inactive) in each case. Besides, the GI50 in experiment [7], in experiment [8], in experiment [9], in [10], in experiment [11] and in experiment [12] was > 100 µM (inactive) throughout. Moreover, the GI50 in experiment [13], in experiment [14], in experiment [15], in experiment [16], in experiment [17] and in experiment [18] was > 100 µM (inactive) throughout. The GI50 in experiment [19] and in experiment [20] was > 100 µM (inactive) in each case.
Turning to `C=CCSSCC=C`, the GI50 in experiment [1] is 22.5 µM (inactive); in experiment [2], > 100 µM (inactive); in experiment [3] it was > 83.8 µM (inactive); in experiment [4] it was 41.6 µM (inactive); in [5] it was > 100 µM (inactive); in experiment [6], 28.5 µM (inactive). For the same compound, the GI50 in experiment [7] was 38.4 µM (inactive); in experiment [8], 27.9 µM (inactive); in experiment [9], 32.1 µM (inactive); in experiment [10] it was 19.8 µM (inactive); in experiment [11], 40.9 µM (inactive); in experiment [12] it was 15.9 µM (inactive). The GI50 was 28.1 µM (inactive) in experiment [13]; 29.5 µM (inactive) in [14]; > 74.8 µM (inactive) in experiment [15]; 35.4 µM (inactive) in experiment [16]; 90.4 µM (inactive) in experiment [17]; 19.1 µM (inactive) in experiment [18]. The GI50 in [19] is > 100 µM (inactive); in [20], 32.9 µM (inactive).
